Measured values taken from patent US5869486A, “Fused pyrimidines and pyriazines as pharmaceutical compounds” (Ono Pharmaceutical Co., Ltd., priority 1995, dated 1999).

target: cGMP-PDE (Homo sapiens, UniProt O76074); assay: Inhibitory effect on cGMP-PDE; assay type: biochemical; conditions: PDE IC isolated from human platelets; substrate 3H-cGMP; tested as 2HCl salt (2, 2(3)), CH3SO3H salt (2(5), 2(7), 5, 6(1)), free base (4, 7, 8)

Compound	IC50
c1ccc(CNc2cc(-c3ccccc3)nc3ncnn23)cc1 [Example 7]	3100 nM
c1ccc(CNc2cc(-c3ccccc3)nn3cnnc23)cc1 [Example 8]	940 nM
c1cn(-c2nc3c(c(NCc4ccc5c(c4)OCO5)n2)CSCC3)cn1 [Example 2(7)]	24 nM
[O-][S+]1CCCc2nc(-n3ccnc3)nc(NCc3ccccc3)c21 (stereo not shown) [Example 5]	3200 nM
Cc1csc2nc(-n3ccnc3)nc(NCc3ccccc3)c12 [Example 2, 4-benzylamino-2-(1-imidazolyl)-5-methylthieno[2,3-d]pyrimidine dihydrochloric acid]	125 nM
c1ccc(CNc2nc(-n3ccnc3)nc3c2CSCC3)cc1 [Example 2(5)]	100 nM
O=S1(=O)CCc2nc(-n3ccnc3)nc(NCc3ccccc3)c2C1 [Example 6(1)]	380 nM
c1ccc(CNc2nc(-n3ccnc3)nc3c2SCCC3)cc1 [Example 2(3)]	100 nM
O=C(O)C1CCN(c2nc3c(c(NCc4ccc5c(c4)OCO5)n2)CSCC3)CC1 [Example 4]	380 nM

tested on: TXA2 synthetase; assay: Inhibitory effect on TXA2 synthetase (TXB2 synthesis in A23187-stimulated whole blood); assay type: cell-based, Male Wistar rats; conditions: at 10 μM; rat heparinized whole blood, Ca ionophore A23187, TXB2 by EIA; CH3SO3H salt
Procedure: Male Wistar rats were starved overnight. Five hundreds microliter of heparinized (10 U/mL) whole blood was collected from abdominal aorta using polyethylene syringe (needle: 22 or 26 G). The blood freshly drawn from animal was preincubated with 5 μL of test compound at 37° C. Five minutes later, 2.5 μL of 6 mM of Ca ionophore A23187 (final concentration of 30 μM) was added into tube, and incubation mixture was further incubated for 15 min. The reaction was terminated by centrifugation of tubes at 12,000 rpm for 2 min. TXB2 content in the supernatant was determined by EIA as follows.
One milliliter of 0.5M glycine-HCl buffer (pH 3.2) was added to 100 μL of sample. The samples were mixed well and centrifuged at 1,700 G for 10 min. at 4° C. The extracted supernatant was applied to a SEP-PAK (registered Trade Mark) C18 cartridge (Waters Assoc.). After washing with 10 mL of distilled water followed by 10 mL each of 15% ethanol and petroleum ether, the sample was eluted with 3 mL of ethyl acetate. The ethyl acetate fraction was evaporated to dryness under gentle N2 stream and the residue was dissolved in EIA buffer (final volume of 1 mL) following the addition of 300 μL of 0.01M NaHCO3 --NaOH buffer (pH 10.0). EIA for TXB2 was carried out according to a legend attached to the kit (Chyman Chemical Co., Inc.). Overall recovery of TXB2 in this extraction procedure was 90%. […]

Compound	Inhibitory activity on TXA2 synthetase
c1cn(-c2nc3c(c(NCc4ccc5c(c4)OCO5)n2)CSCC3)cn1 [Example 2(7)]	63%
